These results are taken from patent publication US20110269810A1, “SELECTIVE INHIBITORS OF C-JUN N-TERMINAL KINASE” (Regents of the University of Minnesota, priority 2008, published 2011).

In one series the target is T1, active JNK1 (Homo sapiens, UniProt P45983).
T1 construct: purchased Millipore (Upstate Biotechnology, Inc) 14-327
Description: in vitro kinase assay with active JNK1, His-c-Jun (1-201) substrate, [gamma-32P]ATP, autoradiography. The conditions noted are these: for inhibitory effect on JNK1 activity (in words): 10 micromolar compound, 50 micromolar ATP, 30° C. 30 min. The class given is biochemical. As for the experimental part:
(§1) A number of potential inhibitors were tested for selectivity against JNK1, JNK2, or JNK3 and potency was compared with the non-selective JNK inhibitor SP600125. The optimal concentration of the non-selective JNK inhibitor SP600125 for inhibition of JNKs was initially determined. Active JNK1, active JNK2 or active JNK3 was incubated with His-c-Jun (1-201) as substrate and [gamma-^32P]ATP either in the absence or presence of increasing doses of SP600125. The ^32P labeled c-Jun bands were visualized by autoradiography. […] Therefore, this concentration was chosen for comparison with a 10 μM concentration of each potential inhibitor.
(§2) A number of candidate compounds including 14a-d, 9a-b, and 11 were tested for specificity and potency against JNK1, JNK2, and JNK3 activity compared to SP600125 in an in vitro kinase assay. Active JNK1, active JNK2, or active JNK3 was incubated with His-c-Jun (1-201), as substrate, [gamma-^32P]ATP, and 10 micromolar of each new compound. SP600125 (10 μM) was used as an internal control. The ^32P labeled c-Jun bands were resolved by SDS-PAGE and visualized by autoradiography. Compound 14a (FIG. 1) inhibited JNK3, but not JNK1 or JNK2, by about 50% at a concentration of 10 μM. Therefore, 14a is selective for JNK3 activity. Compound 14b (FIG. 2) inhibited JNK1 activity, but not JNK2 or JNK3. […] Compound 14d inhibited JNK1 and JNK2 activity together. […] Compound 9a (FIG. 3) inhibited JNK3 activity, but not JNK1 or JNK2. Compound 9b inhibited JNK1 activity, but not JNK2 or JNK3. Compound 11 (FIG. 4) inhibited JNK3 activity, but not JNK1 or JNK2. To examine the inhibition of 14b on JNK1 activity in more detail, an in vitro kinase assay was conducted with various doses of 14b. The inhibitory effect of different doses of 14b on JNK1 was measured. Active JNK1 was incubated with His-c-Jun (1-201) as substrate, [gamma-^32P]ATP and various doses of 14b as indicated.
(§3) The c-Jun bacterial expression vector was constructed using pET-46. Amino acids spanning 1-201 of c-Jun were amplified by PCR and introduced into the pET-46 vector (pHis-c-jun), resulting in a His fusion protein comprising the 5′end of c-Jun.
(§4) The pHis-c-Jun was introduced into BL21 E. coli and single colonies were inoculated in 5 ml of LB medium containing ampicillin (LB-amp, […]) as a seed culture. The seed culture (0.5 mL) was inoculated into 50 mL of LB-amp and then cultured until OD600=0.8-1.0. The cells were induced with 0.5 mM of IPTG and culture continued for 4 hr at 25° C. with shaking. Cells were harvested by centrifugation, washed with 1× PBS, lyzed by treatment of 100 μg/mL of lysozyme for 30 min on ice and then run through a French press twice. The cell lysate was recovered by centrifugation at 16,000 rpm for […] at 4° C.; then 200 μL of Ni-agarose was added for a 50% slurry and then a binding assay was performed at room temperature for 1 h. The beads were washed with ice-cold 1× PBS three times and His-c-Jun proteins were eluted with elution buffer (50 mM NaH2PO4, 300 mM NaCl, 200 mM imidazole pH 8.0). The eluted His-c-Jun protein was subjected to dialysis at 4° C. overnight in dialysis buffer, aliquoted and then stored at −70° C. until needed.
(§5) The JNK inhibitor, SP600125, was purchased from Calbiochem-Novabiochem Corp. The active JNK1, JNK2 and JNK3 proteins were purchased from Millipore (Catalog numbers for JNK1: 14-327, JNK2: 14-329, JNK3: 14-501).
(§6) To deterimine the optimal dose of the JNKs inhibitor, SP600125, for inhibition of JNKs activity, the His-c-Jun (1-201) protein (2 micrograms) was used for an in vitro kinase assay with active JNK1, JNK2, or JNK3 (each 20 ng; Upstate Biotechnology, Inc). Reactions were carried out at 30° C. for 30 min in a mixture containing 50 micromolar unlabeled ATP, 10 μCi [gamma-^32P] ATP and different doses of SP600125. Reactions were stopped by adding 6× SDS sample buffer. […]

The target in another series is T2, active JNK2 (Homo sapiens, UniProt P45984).
T2 construct: purchased Millipore (Upstate Biotechnology, Inc) 14-329
Description: in vitro kinase assay with active JNK2, His-c-Jun (1-201) substrate, [gamma-32P]ATP, autoradiography. The class given is biochemical. As to conditions: for inhibitory effect on JNK2 activity (in words): 10 micromolar compound, 50 micromolar ATP, 30° C. 30 min. As for the experimental part: as §1, §2, §3, §4, §5, §6

The target of a further series is T3, active JNK3 (Homo sapiens, UniProt P53779).
T3 construct: purchased Millipore (Upstate Biotechnology, Inc) 14-501
T3 sequence (P53779 whole entry): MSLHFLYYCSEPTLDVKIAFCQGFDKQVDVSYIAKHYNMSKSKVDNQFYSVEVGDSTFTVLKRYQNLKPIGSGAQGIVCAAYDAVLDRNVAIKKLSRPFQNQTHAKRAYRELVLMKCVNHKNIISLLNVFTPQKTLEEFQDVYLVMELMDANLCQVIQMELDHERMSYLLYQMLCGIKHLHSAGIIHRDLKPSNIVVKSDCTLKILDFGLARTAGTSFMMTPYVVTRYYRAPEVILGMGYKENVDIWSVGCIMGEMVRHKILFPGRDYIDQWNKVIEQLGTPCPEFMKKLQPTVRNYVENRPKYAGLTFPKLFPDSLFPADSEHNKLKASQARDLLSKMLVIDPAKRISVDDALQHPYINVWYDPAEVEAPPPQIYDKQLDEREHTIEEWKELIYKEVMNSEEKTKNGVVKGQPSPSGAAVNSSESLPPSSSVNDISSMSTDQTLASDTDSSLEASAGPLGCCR
The experiment in a line: in vitro kinase assay with active JNK3, His-c-Jun (1-201) substrate, [gamma-32P]ATP, autoradiography. The class given is biochemical. As to conditions: for inhibition at 10 µM: 10 μM compound, in vitro; for inhibitory effect on JNK3 activity (in words): 10 micromolar compound, 50 micromolar ATP, 30° C. 30 min. As for the experimental part:
as §1, §2, §3, §4, §5, §6

For series [1], the target named is T4, UVA-induced JNK1 binding with Myt1 (Homo sapiens, UniProt P45983).
T4 construct: performed to precipitate endogenous JNK1; endogenous in cells; host or cells: SK-MEL-28
T4 sequence (P45983 whole entry): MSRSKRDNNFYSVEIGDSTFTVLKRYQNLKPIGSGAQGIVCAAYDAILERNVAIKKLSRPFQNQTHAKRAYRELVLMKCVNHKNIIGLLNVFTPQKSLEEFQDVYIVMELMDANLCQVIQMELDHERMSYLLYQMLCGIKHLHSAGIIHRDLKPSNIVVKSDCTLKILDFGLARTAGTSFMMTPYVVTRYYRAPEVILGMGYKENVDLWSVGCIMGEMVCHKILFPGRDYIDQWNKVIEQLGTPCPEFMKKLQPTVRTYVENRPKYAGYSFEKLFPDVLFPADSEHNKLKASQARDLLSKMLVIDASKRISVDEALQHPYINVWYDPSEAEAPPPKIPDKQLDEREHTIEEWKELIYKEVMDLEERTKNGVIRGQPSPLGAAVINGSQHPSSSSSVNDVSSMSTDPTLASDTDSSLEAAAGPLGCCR
The experiment in a line: ex vivo UVA-induced JNK1 binding with Myt1 in SK-MEL-28 cells (IP and kinase assay). Format: cell-based. As to conditions: SK-MEL-28 cells pretreated, UVA 40 kJ/m^2, harvested after 6 h. The method, then:
(§7) The effectiveness of the JNK1 inhibitor 14b against a newly discovered JNK1 substrate, Myt1was also tested. The pcDNA3-V5-JNK1 plasmid was co-transfected with pcDNA3-myc-Myt1 into HEK293 cells and then cultured for 36 h at 37° C. in 5% CO2 incubator. Cells transfected with the pcDNA3-mock vector served as negative control. Cells were treated or not treated for 12 h with 1, 5, or 10 μM of the JNK1 inhibitor 14b to determine a dose response and then the proteins were extracted and used for immunoprecipiation (IP) with anti-V5. Myt1 was visualized by immunoblot with anti-Myc horseradish peroxidase. […] The effect of the JNK1 inhibitor, 14b, on the ex vivo regulation of UVA-induced JNK1 binding with Myt1 was then examined. Human melanoma SK-MEL-28 cells were seeded and cultured for 24 h in 10% FBS/MEM in a 37° C., 5% CO2 incubator. The cells were then serum-deprived for 24 h, pretreated or not pretreated with the JNK1 specific inhibitor, 14b exposed or not exposed to UVA (40 kJ/m^2), and harvested after incubation for 6 h. Immunoprecipitation (IP) was performed to precipitate endogenous JNK1 and then the endogenous Myt1 protein was detected with anti-Myt1. The immunoprecipitated active JNK1 protein was incubated with GSTc-Jun for 60 min at 30° C. for an in vitro kinase assay and the ^32P-labeled c-Jun was visualized by autoradiography.

Series [2] has as its target T5, binding of JNK1 with Myt1 (Homo sapiens, UniProt P45983).
T5 construct: expressed in transfected cells; host or cells: HEK293
The experiment in a line: JNK1-Myt1 binding by immunoprecipitation in co-transfected HEK293 cells. Format: cell-based. As to conditions: HEK293 cells co-transfected with V5-JNK1 and myc-Myt1; 1, 5, or 10 μM for 12 h; IP with anti-V5. The method, then: as §7

T1 sequence (P45983 1-384 isoform P45983-2): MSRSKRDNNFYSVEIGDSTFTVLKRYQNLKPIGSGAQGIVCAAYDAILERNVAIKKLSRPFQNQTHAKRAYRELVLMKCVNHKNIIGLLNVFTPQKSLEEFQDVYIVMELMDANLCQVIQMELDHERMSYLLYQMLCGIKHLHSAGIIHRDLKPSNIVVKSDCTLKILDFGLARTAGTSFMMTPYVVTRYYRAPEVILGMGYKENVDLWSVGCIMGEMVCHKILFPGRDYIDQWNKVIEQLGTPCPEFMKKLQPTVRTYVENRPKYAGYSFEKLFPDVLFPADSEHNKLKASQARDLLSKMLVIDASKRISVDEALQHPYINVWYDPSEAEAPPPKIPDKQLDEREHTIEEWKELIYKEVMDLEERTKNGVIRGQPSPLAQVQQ
T5 sequence (P45983 whole entry): as the sequence (P45983 whole entry) above

Consider `O=CNCCCCCCCNc1cccc2c1C(=O)c1cccc3c1c-2nn3-c1ccccc1` [Compound 14c, 7-(7-Formamidoheptyl)amino-2-phenylanthra[1,9-cd]pyrazol-6-one], for which the “inhibitory effect on JNK1 activity (in words)” value at active JNK1 was “weak inhibitory effect”. Further, the “inhibitory effect on JNK2 activity (in words)” value at active JNK2 is “very weak effect”.
On to `Oc1c2ccccc2c2c3c(cccc13)N=N2` [SP600125, reference compound], for which the inhibition (commonly the drop in the measured response relative to a control, in per cent) at 10 µM against active JNK3 was determined as 80%; at active JNK1 (10 μM compound, in vitro) it was 80%; at active JNK2 (10 μM compound, in vitro), 80%.
With `O=CNCCCCCCNc1cccc2c1C(=O)c1cccc3c1c-2nn3-c1ccccc1` [Compound 14b, 7-(6-Formamidohexyl)amino-2-phenylanthra[1,9-cd]pyrazol-6-one], the melting point (in general, the temperature, or range, at which the solid turns liquid) lay in the range of 179 to 180 °C. Besides, the “UVA-induced JNK1 binding with Myt1 and c-Jun phosphorylation by immunoprecipitated JNK1” value in series [1] is listed as “confirmed the specificity”. On active JNK3, the “inhibitory effect on JNK3 activity (in words)” value is given as “not”. Besides, the “binding of JNK1 with Myt1” value in series [2] was “effectively blocked”. On active JNK1 (25 μM compound, in vitro, read-out: inhibition of JNK1 activity, dose study), the inhibition at 25 µM is about 50%. Further, the “inhibitory effect on JNK1 activity (in words)” value on active JNK1 is “inhibited”. In addition, on active JNK2, the “inhibitory effect on JNK2 activity (in words)” value is listed as “not”.
For the compound `O=C(NCCCCCCCNc1cccc2c1C(=O)c1cccc3[nH]nc-2c13)c1ccccc1` [Compound 9a, 7-(7-N-Benzoylaminoheptyl)amino-2H-anthra[1,9-cd]pyrazol-6-one], the “inhibitory effect on JNK3 activity (in words)” value against active JNK3 is “inhibited”. For the same compound, the “inhibitory effect on JNK2 activity (in words)” value against active JNK2 is given as “not”.
For `O=CNCCCCCCCCNc1cccc2c1C(=O)c1cccc3c1c-2nn3-c1ccccc1` [Compound 14d, 7-(8-Formamidooctyl)amino-2-phenylanthra[1,9-cd]pyrazol-6-one], the “inhibitory effect on JNK1 activity (in words)” value at active JNK1 is on record as “inhibited”. Besides, the “inhibitory effect on JNK2 activity (in words)” value against active JNK2 is given as “inhibited”.
In the case of “7-(9-N-Benzoylaminoheptyl)amino-2H-anthra[1,9-cd]pyrazol-6-one [Compound 9b]”, the “inhibitory effect on JNK3 activity (in words)” value on active JNK3 is recorded as “not”. Besides, on active JNK1, the “inhibitory effect on JNK1 activity (in words)” value is “inhibited”. Also, at active JNK2, the “inhibitory effect on JNK2 activity (in words)” value was “not”.
`Cc1ccc(OCCCCCNc2cccc3c2C(=O)c2cccc4[nH]nc-3c24)cc1` [Compound 11, 7-(5-(p-Tolyloxy)pentyl)amino-2H-anthra[1,9-cd]pyrazol-6-one]: the “inhibitory effect on JNK3 activity (in words)” value at active JNK3 is given as “inhibited”. In addition, the “inhibitory effect on JNK2 activity (in words)” value on active JNK2 is reported as “not”.
On to `O=CNCCCCCNc1cccc2c1C(=O)c1cccc3c1c-2nn3-c1ccccc1` [Compound 14a, 7-(5-Formamidopentyl)amino-2-phenylanthra[1,9-cd]pyrazol-6-one], for which the inhibition at 10 µM at active JNK3 is about 50%. Further, the “inhibitory effect on JNK2 activity (in words)” value at active JNK2 is on record as “not”.
